The data set can be described thus: Solubility of compound (B) in solvent (solid content of saturated solution). The class given is physicochemical. As for the experimental part:
Specifically, whether a specific solvent is the component (C) or the component (D) is determined depending on the type of the component (B). […] In more detail, the solubility is determined by measuring the solid content of the component (B) in a solution consisting of the component (B) and the solvent.
The supernatant liquid of the resulting mixture was dried on a hot plate at 120° C. for one hour and weighed to calculate the solid content.

[1] abbreviates: solvent: IPA (isopropyl alcohol).

This is an account of results in patent US20070155882A1, “Curable liquid composition, cured film, and antistatic laminate” (priority 2003, published 2007).

Some results are limits rather than exact numbers.

In the case of `C=CC(=O)OCC(COCC(COC(=O)C=C)(COC(=O)C=C)COC(=O)C=C)(COC(=O)C=C)COC(=O)C=C` [Example B-1, Dipentaerythritol hexaacrylate], the solubility in solvent entry reads like this: under setting [1], “≧50 wt %”; (solvent: MeOH (methanol)) “≧50 wt %”.
In the case of “Tricyclodecanediyldimethanol diacrylate [Example B-2]”, the solubility in solvent entry runs as follows: (solvent: EtOH (ethanol)) “≧50 wt %”; under setting [1], “≧50 wt %”; (solvent: MeOH (methanol)) “≧50 wt %”; (solvent: water) less than 0.1 wt %.
For `C=CC(=O)OCCn1c(=O)n(CCOC(=O)C=C)c(=O)n(CCOC(=O)C=C)c1=O` [Example B-3, Tris(2-hydroxyethyl)isocyanurate triacrylate], the solubility in solvent (solvent: EtOH (ethanol)) is reported as 1.8 wt %, the solubility in solvent under setting [1] came out at 7.1 wt %, the solubility in solvent (solvent: MeOH (methanol)) was determined as 49 wt % and the solubility in solvent (solvent: water) came to 1.2 wt %.
